The results in this text go back to patent US9403830B2, “Inhibitors of leukotriene production” (Boehringer Ingelheim International GmbH, priority 2012, dated 2016).

For experiment [1], the system named is LTB4 synthesis in human whole blood. Description: human whole blood (HWB) assay, inhibition of LTB4 production. It counts as cell-based. The note with it: heparinized human whole blood, calcimycin 20 μM stimulation, plasma LTB4. As for the experimental part:
The compounds of the invention are additionally tested in a human whole blood (HWB) assay to determine their ability to inhibit the synthesis of LTB4 in a cellular system. Compounds are combined with heparinized human whole blood and incubated for 15 minutes at 37° C. Calcimycin (20 μM final, prepared in phosphate-buffered saline, pH 7.4) is then added and the mixture is incubated for another 30 minutes at 37° C. The samples are centrifuged for 5 min at low speed (1500×g) and the plasma layer is removed. Plasma LTB4 concentrations are then measured using an antibody-based homogenous time-resolved fluorescence method (CisBio, Bedford, Mass.). In general, the preferred potency range (IC50) of compounds in the HWB assay is between 10 nM to 10 μM, the more preferred potency range is 10 nM to 1 μM, and the most preferred potency range is 10 nM to 100 nM.

The next experiment concerns the target T1, human LTA4 hydrolase (Homo sapiens, UniProt P09960).
T1 sequence (P09960 1-611): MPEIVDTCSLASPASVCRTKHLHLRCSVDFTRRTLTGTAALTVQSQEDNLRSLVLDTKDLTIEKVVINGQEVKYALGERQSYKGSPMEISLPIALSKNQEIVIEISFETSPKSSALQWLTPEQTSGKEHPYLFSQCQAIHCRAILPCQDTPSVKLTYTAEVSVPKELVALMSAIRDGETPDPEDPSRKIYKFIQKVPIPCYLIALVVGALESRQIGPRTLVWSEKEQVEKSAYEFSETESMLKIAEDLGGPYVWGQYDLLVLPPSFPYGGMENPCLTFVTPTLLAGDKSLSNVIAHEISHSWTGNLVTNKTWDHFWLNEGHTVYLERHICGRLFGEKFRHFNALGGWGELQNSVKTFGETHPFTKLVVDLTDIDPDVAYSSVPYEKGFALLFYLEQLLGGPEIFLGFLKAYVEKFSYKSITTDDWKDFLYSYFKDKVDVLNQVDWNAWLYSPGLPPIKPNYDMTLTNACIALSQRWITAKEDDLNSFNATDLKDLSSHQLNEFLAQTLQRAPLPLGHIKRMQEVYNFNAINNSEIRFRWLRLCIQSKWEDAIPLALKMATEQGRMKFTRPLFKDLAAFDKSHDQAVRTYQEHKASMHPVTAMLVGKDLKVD
The experiment can be described thus: LTA4H Enzyme assay (peptidase, Arg-AMC cleavage). It is filed as biochemical. The note with it: LTA4H enzyme 1 nM, Arg-AMC substrate 50 μM, room temperature 1 h, fluorescence 380/460 nm. As to the method:
The compounds of the invention are assessed for the ability to interact with human LTA4 hydrolase in an enzymatic assay that measures the ability of the enzyme to cleave the peptide bond of arginyl-aminomethylcoumarin (Arg-AMC). LTA4H Enzyme (1 nM final), Arg-AMC substrate (50 μM final), and compound are combined in a reaction buffer (50 mM Tris-HCl (pH 7.5), 100 mM KCl, 0.5% bovine serum albumin) at room temperature for 1 h. The formation of product is assessed by measuring the fluorescence of aminomethylcoumarin product (excitation wavelength 380 nm/emission wavelength 460 nm). In general, the preferred potency range (IC50) of compounds in the LTA4H Enzyme assay is between 0.1 nM to 10 μM, the more preferred potency range is 0.1 nM to 0.1 μM, and the most preferred potency range is 0.1 nM to 10 nM.

As usually defined, the IC50 is the concentration that inhibits the measured activity by half. In the case of `CC(C)(O)C(=O)NC1CCN(CCn2cc3cc(Oc4ccc(-c5ccn[nH]5)cn4)ccc3n2)CC1` [Example 112, 2-Hydroxy-2-methyl-N-[1-(2-{5-[5-(2H-pyrazol-3-yl)-pyridin-2-yloxy]-indazol-2-yl}-ethyl)-piperidin-4-yl]-propionamide], the values for the IC50 (in experiment [1]; at human LTA4 hydrolase) were 280 nM and 2.1 nM, respectively.
`O=C(CO)N1C[C@H]2C[C@@H]1CN2Cc1ccc2cc(Oc3ccc(-c4ccn[nH]4)cn3)ccc2n1` [Example 145, 2-Hydroxy-1-((1R,4R)-5-{6-[5-(2H-pyrazol-3-yl)-pyridin-2-yloxy]-quinolin-2-ylmethyl}-2,5-diaza-bicyclo[2.2.1]hept-2-yl)-ethanone]: the IC50 stood at 210 nM in experiment [1] and 0.4 nM against human LTA4 hydrolase.
On to `c1cc(-c2ccc(Oc3ccc4nc(CN5CCC5)ccc4c3)cc2)[nH]n1` [Example 244, 2-Azetidin-1-ylmethyl-6-[4-(2H-pyrazol-3-yl)-phenoxy]-quinoline], for which the values for the IC50 (in experiment [1]; at human LTA4 hydrolase) were 120 nM and 0.048 nM, respectively.
Taken in the same sequence, the figures for `CC(C)C(=O)N1CCN(Cc2ccc3cc(Oc4ccc(-c5ccn[nH]5)cn4)ccc3n2)CC1` [Example 26, 2-Methyl-1-(4-{6-[5-(2H-pyrazol-3-yl)-pyridin-2-yloxy]-quinolin-2-ylmethyl}-piperazin-1-yl)-propan-1-one] were 130 nM and 0.57 nM.
Regarding `O=C1CCCN1C1CCN(CC2Cc3ccc(Oc4ccc(-c5ccn[nH]5)cn4)cc3O2)CC1` (stereo not drawn) [Example 129, 1-(1-{6-[5-(2H-Pyrazol-3-yl)-pyridin-2-yloxy]-2,3-dihydro-benzofuran-2-ylmethyl}-piperidin-4-yl)-pyrrolidin-2-one], the IC50 in experiment [1] came to 190 nM; on human LTA4 hydrolase it was 0.92 nM.
Taken in the same sequence, the figures for `CC(=O)N1CCN(Cc2ccc3cc(Oc4ccc(-c5cc[nH]n5)cn4)ccc3n2)CC1` [Example 231, 1-(4-{6-[5-(1H-Pyrazol-3-yl)-pyridin-2-yloxy]-quinolin-2-ylmethyl}-piperazin-1-yl)-ethanone] were 150 nM and 0.55 nM.
Regarding `CS(=O)(=O)NC1CCN(CCc2coc3cc(Oc4ccc(-c5ccn[nH]5)cn4)ccc23)CC1` [Example 141, N-[1-(2-{6-[5-(2H-Pyrazol-3-yl)-pyridin-2-yloxy]-benzofuran-3-yl}-ethyl)-piperidin-4-yl]-methanesulfonamide], the figures for the IC50 (in experiment [1]; against human LTA4 hydrolase) were 200 nM and 0.35 nM, respectively.
Taken in the same sequence, the figures for `CC(=O)NC1CCN(CCCn2cc3cc(Oc4ccc(-c5ccn[nH]5)cc4)ccc3n2)CC1` [Example 116, N-[1-(3-{5-[4-(2H-Pyrazol-3-yl)-phenoxy]-indazol-2-yl}-propyl)-piperidin-4-yl]-acetamide] were 580 nM and 0.95 nM.
Take `CN(Cc1nc2cc(Oc3ccc(-c4ccn[nH]4)cc3)ccc2[nH]1)[C@H]1CCCC[C@@H]1O` [Example 229, (1S,2S)-2-(Methyl-{5-[4-(2H-pyrazol-3-yl)-phenoxy]-1H-benzoimidazol-2-ylmethyl}-amino)-cyclohexanol]: the IC50 in experiment [1] was found to be 190 nM; at human LTA4 hydrolase, 0.22 nM.
Turning to `CN(Cc1nc2cc(Oc3ccc(-c4ccn[nH]4)cc3)ccc2[nH]1)CC1CCCOC1` (stereo not drawn) [Example 92, Methyl-{5-[4-(2H-pyrazol-3-yl)-phenoxy]-1H-benzoimidazol-2-ylmethyl}-(tetrahydro-pyran-3-ylmethyl)-amine], the half-maximal inhibitory concentration (IC50) in experiment [1] came out at 140 nM; against human LTA4 hydrolase, 0.11 nM.
For `c1cc(-c2ccc(Oc3ccc4cc(CN5CCOCC5)nn4c3)cc2)[nH]n1` [Example 14, 2-morpholin-4-ylmethyl-6-[4-(2H-pyrazol-3-yl)-phenoxy]-pyrazolo[1,5-a]pyridine] the same measures were 310 nM and 1.2 nM.
Taken in the same sequence, the figures for `c1cc(-c2ccc(Oc3ccc4[nH]c(CNC[C@@H]5CCCO5)nc4c3)cc2)[nH]n1` [Example 100, {5-[4-(2H-Pyrazol-3-yl)-phenoxy]-1H-benzoimidazol-2-ylmethyl}-[(S)-1-(tetrahydro-furan-2-yl)methyl]-amine] were 170 nM and 0.42 nM.
